Results reported in patent publication US8952024B2, “Herbicidal pyrimidone derivatives” (E I du Pont de Nemours and Company, priority 2009, dated 2015).

Columns and labels:
Experiment in all cases: Test D pre-/postemergence plant response
Type in all cases: in vivo
[1] = system: mallow (common mallow, Malva sylvestris)
How it was run: (§1)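 Each species was planted in mixed loam and sand, treated either before emergence or at the 1- to 4-leaf stage, then kept under glass for 14 to 21 days. Plant response was scored by eye from 0 to 100 relative to controls; a dash marks no result.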

[2] = system: johnsongrass (Sorghum halepense)
How it was run: as §1

[3] = system: quackgrass (Elytrigia repens)
How it was run: as §1

[4] = system: bermudagrass (Cynodon dactylon)
How it was run: as §1

[5] = system: field bindweed (Convolvulus arvensis)
How it was run: as §1

[6] = system: goosegrass (Eleusine indica)
How it was run: as §1

[7] = system: guineagrass (Panicum maximum)
How it was run: as §1

[8] = system: signalgrass (broadleaf signalgrass, Brachiaria platyphylla)
How it was run: as §1

[9] = system: sandbur (southern sandbur, Cenchrus echinatus)
How it was run: as §1

[10] = system: chickweed (common chickweed, Stellaria media)
How it was run: as §1

[11] = system: dallisgrass (Paspalum dilatatum)
How it was run: as §1

[12] = system: kochia (Kochia scoparia)
How it was run: as §1

[13] = system: bluegrass (annual bluegrass, Poa annua)
How it was run: as §1

[14] = system: morningglory (pitted morningglory, Ipomoea lacunosa)
How it was run: as §1

[15] = system: purslane (common purslane, Portulaca oleracea)
How it was run: as §1

[16] = system: large crabgrass (Digitaria sanguinalis)
How it was run: as §1

[17] = system: nutsedge (purple nutsedge, Cyperus rotundus)
How it was run: as §1

[18] = system: groundsel (common groundsel, Senecio vulgaris); conditions: Postemergence
How it was run: as §1

[19] = Postemergence, 31 g ai/ha, scale 0 to 100
[20] = Postemergence, 62 g ai/ha, scale 0 to 100 (0 no effect, 100 complete control)
[21] = Postemergence, 125 g ai/ha, scale 0 to 100 (0 no effect, 100 complete control)
[22] = Postemergence, 16 g ai/ha, scale 0 to 100
[23] = Preemergence, 16 g ai/ha, scale 0 to 100, 0 no effect, 100 complete control
[24] = Preemergence, 62 g ai/ha, scale 0 to 100
[25] = Preemergence, 125 g ai/ha, scale 0 to 100
[26] = Preemergence, 31 g ai/ha, scale 0 to 100 (0 no effect, 100 complete control)
[27] = Postemergence, 31 g ai/ha, scale 0 to 100 (0 no effect, 100 complete control)

COCCn1c(-c2ccccc2)ncc(C(=O)C2=C(O)CCCC2=O)c1=O [Compound 85]
Plant response rating, Mallow [1, 19]: 65
Plant response rating, Mallow [1, 20]: 70
Plant response rating, Mallow [1, 21]: 75
Plant response rating, Mallow [1, 22]: 60
Plant response rating, Mallow [1, 23]: 80
Plant response rating, Mallow [1, 24]: 95
Plant response rating, Mallow [1, 25]: 98
Plant response rating, Johnsongrass [2, 19]: 50
Plant response rating, Johnsongrass [2, 20]: 80
Plant response rating, Johnsongrass [2, 21]: 80
Plant response rating, Johnsongrass [2, 22]: 35
Plant response rating, Johnsongrass [2, 23]: 50
Plant response rating, Johnsongrass [2, 26]: 65
Plant response rating, Johnsongrass [2, 24]: 80
Plant response rating, Johnsongrass [2, 25]: 95
Plant response rating, Quackgrass [3, 19]: 0
Plant response rating, Quackgrass [3, 20]: 15
Plant response rating, Quackgrass [3, 21]: 20
Plant response rating, Quackgrass [3, 22]: 0
Plant response rating, Quackgrass [3, 23]: 0
Plant response rating, Quackgrass [3, 26]: 0
Plant response rating, Quackgrass [3, 25]: 20
Plant response rating, Bermudagrass [4, 27]: 75
Plant response rating, Bermudagrass [4, 20]: 80
Plant response rating, Bermudagrass [4, 21]: 90
Plant response rating, Bermudagrass [4, 22]: 65
Plant response rating, Bermudagrass [4, 23]: 80
Plant response rating, Bermudagrass [4, 26]: 100
Plant response rating, Bermudagrass [4, 24]: 100
Plant response rating, Bermudagrass [4, 25]: 100
Plant response rating, Field Bindweed [5, 19]: 75
Plant response rating, Field Bindweed [5, 20]: 75
Plant response rating, Field Bindweed [5, 21]: 75
Plant response rating, Field Bindweed [5, 22]: 65
Plant response rating, Field Bindweed [5, 23]: 50
Plant response rating, Field Bindweed [5, 26]: 70
Plant response rating, Field Bindweed [5, 24]: 70
Plant response rating, Field Bindweed [5, 25]: 98
Plant response rating, Goosegrass [6, 19]: 65
Plant response rating, Goosegrass [6, 20]: 75
Plant response rating, Goosegrass [6, 21]: 75
Plant response rating, Goosegrass [6, 22]: 40
Plant response rating, Goosegrass [6, 23]: 65
Plant response rating, Goosegrass [6, 26]: 75
Plant response rating, Goosegrass [6, 24]: 75
Plant response rating, Goosegrass [6, 25]: 98
Plant response rating, Guineagrass [7, 19]: 20
Plant response rating, Guineagrass [7, 20]: 35
Plant response rating, Guineagrass [7, 21]: 60
Plant response rating, Guineagrass [7, 22]: 10
Plant response rating, Guineagrass [7, 23]: 0
Plant response rating, Guineagrass [7, 26]: 10
Plant response rating, Guineagrass [7, 24]: 70
Plant response rating, Guineagrass [7, 25]: 75
Plant response rating, Signalgrass [8, 19]: 35
Plant response rating, Signalgrass [8, 20]: 60
Plant response rating, Signalgrass [8, 21]: 75
Plant response rating, Signalgrass [8, 22]: 20
Plant response rating, Signalgrass [8, 23]: 5
Plant response rating, Signalgrass [8, 26]: 60
Plant response rating, Signalgrass [8, 25]: 95
Plant response rating, Sandbur [9, 19]: 50
Plant response rating, Sandbur [9, 20]: 65
Plant response rating, Sandbur [9, 21]: 95
Plant response rating, Sandbur [9, 22]: 10
Plant response rating, Sandbur [9, 23]: 5
Plant response rating, Sandbur [9, 26]: 5
Plant response rating, Sandbur [9, 25]: 98
Plant response rating, Chickweed [10, 19]: 80
Plant response rating, Chickweed [10, 20]: 100
Plant response rating, Chickweed [10, 21]: 100
Plant response rating, Chickweed [10, 23]: 90
Plant response rating, Chickweed [10, 26]: 100
Plant response rating, Chickweed [10, 24]: 100
Plant response rating, Chickweed [10, 25]: 100
Plant response rating, Dallisgrass [11, 19]: 25
Plant response rating, Dallisgrass [11, 20]: 65
Plant response rating, Dallisgrass [11, 21]: 80
Plant response rating, Dallisgrass [11, 22]: 15
Plant response rating, Dallisgrass [11, 23]: 50
Plant response rating, Dallisgrass [11, 26]: 80
Plant response rating, Dallisgrass [11, 24]: 95
Plant response rating, Dallisgrass [11, 25]: 98
Plant response rating, Kochia [12, 19]: 10
Plant response rating, Kochia [12, 20]: 20
Plant response rating, Kochia [12, 21]: 60
Plant response rating, Kochia [12, 22]: 0
Plant response rating, Kochia [12, 23]: 5
Plant response rating, Kochia [12, 26]: 20
Plant response rating, Kochia [12, 24]: 75
Plant response rating, Kochia [12, 25]: 95
Plant response rating, Bluegrass [13, 27]: 0
Plant response rating, Bluegrass [13, 20]: 5
Plant response rating, Bluegrass [13, 21]: 5
Plant response rating, Bluegrass [13, 22]: 0
Plant response rating, Bluegrass [13, 23]: 0
Plant response rating, Bluegrass [13, 26]: 0
Plant response rating, Bluegrass [13, 24]: 0
Plant response rating, Bluegrass [13, 25]: 15
Plant response rating, Morningglory [14, 19]: 70
Plant response rating, Morningglory [14, 20]: 75
Plant response rating, Morningglory [14, 21]: 90
Plant response rating, Morningglory [14, 22]: 70
Plant response rating, Morningglory [14, 26]: 70
Plant response rating, Morningglory [14, 24]: 90
Plant response rating, Morningglory [14, 25]: 100
Plant response rating, Purslane [15, 19]: 80
Plant response rating, Purslane [15, 20]: 90
Plant response rating, Purslane [15, 21]: 90
Plant response rating, Purslane [15, 22]: 75
Plant response rating, Purslane [15, 23]: 80
Plant response rating, Purslane [15, 26]: 100
Plant response rating, Purslane [15, 24]: 100
Plant response rating, Purslane [15, 25]: 100
Plant response rating, Crabgrass, Large [16, 19]: 60
Plant response rating, Crabgrass, Large [16, 20]: 75
Plant response rating, Crabgrass, Large [16, 21]: 75
Plant response rating, Crabgrass, Large [16, 22]: 60
Plant response rating, Crabgrass, Large [16, 23]: 95
Plant response rating, Crabgrass, Large [16, 26]: 98
Plant response rating, Crabgrass, Large [16, 24]: 100
Plant response rating, Crabgrass, Large [16, 25]: 100
Plant response rating, Nutsedge, Purple [17, 19]: 30
Plant response rating, Nutsedge, Purple [17, 20]: 50
Plant response rating, Nutsedge, Purple [17, 21]: 65
Plant response rating, Nutsedge, Purple [17, 22]: 5
Plant response rating, Nutsedge, Purple [17, 23]: 70
Plant response rating, Nutsedge, Purple [17, 26]: 75
Plant response rating, Nutsedge, Purple [17, 24]: 95
Plant response rating, Nutsedge, Purple [17, 25]: 95
Plant response rating, Groundsel ([18]; 31 g ai/ha, scale 0 to 100): 100
Plant response rating, Groundsel ([18]; 62 g ai/ha, scale 0 to 100 (0 no effect, 100 complete control)): 100
Plant response rating, Groundsel ([18]; 125 g ai/ha, scale 0 to 100 (0 no effect, 100 complete control)): 100
Plant response rating, Groundsel ([18]; 16 g ai/ha, scale 0 to 100): 100
